Measurements: US20210330611A1, “THERAPY FOR NEUROLOGICAL DISEASES/DISORDERS” (priority 2020, published 2021)
Like-named read-outs stand apart in the source and are kept apart here.

Assays:
[1] = system: fibrin-induced microglia activation; assay: Image-based assay of fibrin-induced microglia activation (HTS and dose response); format: cell-based, rat; details: for inhibition at 10 µM: Rattus norvegicus, Microglia, read-out: Fibrin % inhibition
[2] = system: LPS-induced microglia activation; assay: Image-based assay of LPS-induced microglia activation (HTS and dose response); format: cell-based, rat; details: for inhibition at 10 µM: Rattus norvegicus, Microglia, read-out: LPS % inhibition
[3] = system: fibrin- and LPS-induced microglia activation; assay: cells; format: cell-based, rat
primary rat microglia [4] = assay: Cell toxicity (dead cells, size <150 μm2) in LPS assay
primary rat microglia [5] = assay: Cell toxicity (dead cells, size <150 μm2) in coated fibrin (cFib) assay;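 note: share of dead cells sized under 150 µm2 at 10 µM in fibrin-stimulated microglia HTS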
[6] = primary HTS, 10 μM, fibrin-stimulated primary microglia
[7] = primary HTS, 10 μM, LPS-stimulated primary microglia
[8] = primary HTS, 10 μM, LPS assay, dead cells size <150 μm2
[9] = primary HTS, 10 μM, fibrin assay, dead cells size <150 μm2
[10] = primary microglia HTS, fibrin stimulation, increased cell size (>800 μm^2) as marker of activation
[11] = 48 h, primary microglia HTS, LPS stimulation, increased cell size (>800 μm^2) as marker of activation
[12] = quadrant by fibrin and LPS inhibition in HTS of 1907 compounds
[13] = primary microglia HTS, LPS stimulation, decreased size (<150 μm^2) as marker of toxicity
[14] = primary microglia HTS, fibrin stimulation, decreased size (<150 μm^2) as marker of toxicity
[15] = primary microglia HTS, fibrin stimulation, activation = cell size >800 μm2
[16] = 48 h, primary microglia HTS, LPS stimulation, activation = cell size >800 μm2
[17] = primary microglia HTS, LPS stimulation, toxicity = cell size <150 μm2
[18] = primary microglia HTS, fibrin stimulation, toxicity = cell size <150 μm2
[19] = primary microglia HTS, 10 μM, fibrin-stimulated, cell size >800 μm^2 as marker of activation
[20] = primary microglia HTS, 10 μM, LPS-stimulated, cell size >800 μm^2 as marker of activation
[21] = HTS of 1907 compounds, quadrant by fibrin and LPS inhibition
[22] = primary microglia HTS, 10 μM, LPS assay, cell size <150 μm^2 as marker of toxicity
[23] = primary microglia HTS, 10 μM, fibrin assay, cell size <150 μm^2 as marker of toxicity
[24] = primary microglia HTS, LPS stimulation, activation = cell size >800 μm2

## NC(=O)N[C@@H](CCC(=O)O)C(=O)O [Carglumic Acid]
[1]; [6]
  inhibition at 10 µM: 1%
[2]; [7]
  inhibition at 10 µM: 6%
[3]; primary HTS, 10 μM
  Quadrant (FIG. 5b): Q4
Primary rat microglia [4]; [8]
  LPS % cell toxicity: 0%
Primary rat microglia [5]; [9]
  Fibrin % cell toxicity: 1%

## COc1ccc(C(=O)c2ccccc2)c(O)c1 [Oxybenzone]
[1]; [10]
  inhibition at 10 µM: -15%
[2]; [11]
  inhibition at 10 µM: 12%
[3]; [12]
  Quadrant (FIG. 5b): Q4
Primary rat microglia [4]; [13]
  LPS % cell toxicity: 0%
Primary rat microglia [5]; [14]
  Fibrin % cell toxicity: 0%

## CCCCCN(CCCCC)C(=O)C(CCC(=O)O)NC(=O)c1ccc(Cl)c(Cl)c1 (stereo not drawn) [Lorglumide Sodium]
[1]; [15]
  inhibition at 10 µM: -29%
[2]; [16]
  inhibition at 10 µM: 13%
[3]; [12]
  Quadrant (FIG. 5b): Q4
Primary rat microglia [4]; [17]
  LPS % cell toxicity: 1%
Primary rat microglia [5]; [18]
  Fibrin % cell toxicity: 1%

## C1N2CN3CN1CN(C2)C3 [Hexamethylenetetramine]
[1]; [15]
  inhibition at 10 µM: -9%
[2]; [16]
  inhibition at 10 µM: 20%
[3]; [12]
  Quadrant (FIG. 5b): Q4
Primary rat microglia [4]; [17]
  LPS % cell toxicity: 0%
Primary rat microglia [5]; [18]
  Fibrin % cell toxicity: 1%

## CCCOc1ccccc1-c1nc2nn[nH]c2c(=O)[nH]1 [Zaprinast]
[1]; [19]
  inhibition at 10 µM: -34%
[2]; [20]
  inhibition at 10 µM: 13%
[3]; [21]
  Quadrant (FIG. 5b): Q4
Primary rat microglia [4]; [22]
  LPS % cell toxicity: 0%
Primary rat microglia [5]; [23]
  Fibrin % cell toxicity: 1%

## CO[C@@]1(NC(=O)Cc2cccs2)C(=O)N2C(C(=O)O)=C(COC(N)=O)CS[C@@H]21 [Cefoxitin]
[1]; [6]
  inhibition at 10 µM: 6%
[2]; [7]
  inhibition at 10 µM: 8%
[3]; primary HTS, 10 μM
  Quadrant (FIG. 5b): Q4
Primary rat microglia [4]; [8]
  LPS % cell toxicity: 0%
Primary rat microglia [5]; [9]
  Fibrin % cell toxicity: 0%

## Sucralfate
[1]; [19]
  Fibrin % inhibition: −35%
[2]; [20]
  LPS % inhibition: 22%
[3]; [21]
  Quadrant (FIG. 5b): Q4
Primary rat microglia [4]; [22]
  LPS % cell toxicity: 0%
Primary rat microglia [5]; [23]
  Fibrin % cell toxicity: 1%

## CCCCC[C@H](O)/C=C/[C@H]1[C@H](O)CC(=O)[C@@H]1CCCCCCC(=O)O [Alprostadil]
[1]; [10]
  inhibition at 10 µM: 100%
[2]; [11]
  inhibition at 10 µM: 87%
[3]; [12]
  Quadrant (FIG. 5b): Q2
Primary rat microglia [4]; [13]
  LPS % cell toxicity: 3%
Primary rat microglia [5]; [14]
  Fibrin % cell toxicity: 9%

## C[n+]1cc2c3c(ccc2c2ccc4cc5c(cc4c21)OCO5)OCO3
[1]; [10]
  Fibrin % inhibition: 24%
[2]; primary microglia HTS, LPS stimulation, increased cell size (>800 μm^2) as marker of activation
  LPS % inhibition: 101%
[3]; [12]
  Quadrant (FIG. 5b): Q1
Primary rat microglia [4]; [13]
  LPS % cell toxicity: 55%
Primary rat microglia [5]; [14]
  Fibrin % cell toxicity: 0%

## CC1CCc2cc(F)cc3c(=O)c(C(=O)O)cn1c23 (stereo not drawn) [Flumequine]
[1]; [15]
  inhibition at 10 µM: -1%
[2]; [16]
  inhibition at 10 µM: 16%
[3]; [12]
  Quadrant (FIG. 5b): Q4
Primary rat microglia [4]; [17]
  LPS % cell toxicity: 1%
Primary rat microglia [5]; [18]
  Fibrin % cell toxicity: 0%

## FC(F)(F)COCC(F)(F)F [Flurothyl]
[1]; [15]
  Fibrin % inhibition: 0%
[2]; [24]
  LPS % inhibition: 28%
[3]; [12]
  Quadrant (FIG. 5b): Q4
Primary rat microglia [4]; [17]
  LPS % cell toxicity: 0%
Primary rat microglia [5]; [18]
  Fibrin % cell toxicity: 1%

## CC(O)CN1CCN(CC(=O)[O-])CCN(CC(=O)[O-])CCN(CC(=O)[O-])CC1.[Gd+3] (stereo not drawn) [Gadoteridol]
[1]; [15]
  Fibrin % inhibition: −18%
[2]; [24]
  LPS % inhibition: 15%
[3]; [12]
  Quadrant (FIG. 5b): Q4
Primary rat microglia [4]; [17]
  LPS % cell toxicity: 0%
Primary rat microglia [5]; [18]
  Fibrin % cell toxicity: 1%

## CN1[C@@H]2CC[C@H]1C[C@@H](OC(=O)c1c[nH]c3ccccc13)C2 [Tropisetron]
[1]; [19]
  inhibition at 10 µM: -28%
[2]; [20]
  inhibition at 10 µM: 14%
[3]; [21]
  Quadrant (FIG. 5b): Q4
Primary rat microglia [4]; [22]
  LPS % cell toxicity: 0%
Primary rat microglia [5]; [23]
  Fibrin % cell toxicity: 0%

## CC(C(=O)O)c1ccc(N2Cc3ccccc3C2=O)cc1 (stereo not drawn) [Indoprofen]
[1]; [15]
  inhibition at 10 µM: -34%
[2]; [16]
  inhibition at 10 µM: 18%
[3]; [12]
  Quadrant (FIG. 5b): Q4
Primary rat microglia [4]; [17]
  LPS % cell toxicity: 0%
Primary rat microglia [5]; [18]
  Fibrin % cell toxicity: 1%

## C=C1/C(=C\C=C2/CCC[C@]3(C)[C@@H]([C@H](C)/C=C/[C@@H](O)C4CC4)CC[C@@H]23)C[C@@H](O)C[C@@H]1O [Calcipotriol]
[1]; [6]
  inhibition at 10 µM: 2%
[2]; [7]
  inhibition at 10 µM: -8%
[3]; primary HTS, 10 μM
  Quadrant (FIG. 5b): Q4
Primary rat microglia [4]; [8]
  LPS % cell toxicity: 0%
Primary rat microglia [5]; [9]
  Fibrin % cell toxicity: 1%
